Columns and labels:
[1] = bacteroides stercoris, 12 h, 2 µM
Description: The drug is tested on Bacteroides stercoris strain: ATCC43183 for biotransformation. The drug concentrations were measured before and after a 12-h incubation by liquid-chromatography-coupled mass spectrometry (LC–MS)

[2] = The drug is tested on Bacteroides ovatus strain: ATCC8483 for biotransformation. The drug concentrations were measured before and after a 12-h incubation by liquid-chromatography-coupled mass spectrometry (LC–MS); details: 2 µM
[3] = The drug is tested on Bacteroides fragilis strain: ATCC43859 for biotransformation. The drug concentrations were measured before and after a 12-h incubation by liquid-chromatography-coupled mass spectrometry (LC–MS); details: 2 µM
[4] = The drug is tested on Blautia hansenii strain: DSM20583 for biotransformation. The drug concentrations were measured before and after a 12-h incubation by liquid-chromatography-coupled mass spectrometry (LC–MS); details: 2 µM
[5] = The drug is tested on Collinsella intestinalis strain: DSM13280 for biotransformation. The drug concentrations were measured before and after a 12-h incubation by liquid-chromatography-coupled mass spectrometry (LC–MS); details: 2 µM
[6] = anaerostipes sp., 12 h, 2 µM
Description: The drug is tested on Anaerostipes sp. strain: fecal isolate for biotransformation. The drug concentrations were measured before and after a 12-h incubation by liquid-chromatography-coupled mass spectrometry (LC–MS)

[7] = The drug is tested on Providencia rettgeri strain: DSM1131 for biotransformation. The drug concentrations were measured before and after a 12-h incubation by liquid-chromatography-coupled mass spectrometry (LC–MS); assay type: ADME; parameters: dose 2 uM, timepoint 0 vs 12 hours; details: 2 µM
[8] = The drug is tested on Coprococcus comes strain: ATCC27758 for biotransformation. The drug concentrations were measured before and after a 12-h incubation by liquid-chromatography-coupled mass spectrometry (LC–MS); assay type: ADME; parameters: dose 2 uM, timepoint 0 vs 12 hours; details: 2 µM
[9] = The drug is tested on Bacteroides dorei strain: DSM17855 for biotransformation. The drug concentrations were measured before and after a 12-h incubation by liquid-chromatography-coupled mass spectrometry (LC–MS); details: phocaeicola dorei, 2 µM
[10] = bacteroides fragilis, 12 h, 2 µM
Description: The drug is tested on Bacteroides fragilis strain: DS-208 for biotransformation. The drug concentrations were measured before and after a 12-h incubation by liquid-chromatography-coupled mass spectrometry (LC–MS)

[11] = bacteroides fragilis, 12 h, 2 µM; remark: listed apart in the source
Description: The drug is tested on Bacteroides fragilis strain: 3397 (T10) for biotransformation. The drug concentrations were measured before and after a 12-h incubation by liquid-chromatography-coupled mass spectrometry (LC–MS)

[12] = The drug is tested on Bacteroides coprophilus strain: DSM18228 for biotransformation. The drug concentrations were measured before and after a 12-h incubation by liquid-chromatography-coupled mass spectrometry (LC–MS); details: 2 µM
[13] = The drug is tested on Anaerococcus hydrogenalis strain: DSM7454 for biotransformation. The drug concentrations were measured before and after a 12-h incubation by liquid-chromatography-coupled mass spectrometry (LC–MS); details: 2 µM
[14] = The drug is tested on Bacteroides vulgatus strain: ATCC8482 for biotransformation. The drug concentrations were measured before and after a 12-h incubation by liquid-chromatography-coupled mass spectrometry (LC–MS); details: phocaeicola vulgatus, 2 µM
[15] = The drug is tested on Parabacteroides merdae strain: ATCC43184 for biotransformation. The drug concentrations were measured before and after a 12-h incubation by liquid-chromatography-coupled mass spectrometry (LC–MS); details: 2 µM
[16] = bacteroides fragilis, 12 h, 2 µM; remark: listed apart in the source
Description: The drug is tested on Bacteroides fragilis strain: NCTC 9343 for biotransformation. The drug concentrations were measured before and after a 12-h incubation by liquid-chromatography-coupled mass spectrometry (LC–MS)

[17] = The drug is tested on Providencia stuartii strain: ATCC25827 for biotransformation. The drug concentrations were measured before and after a 12-h incubation by liquid-chromatography-coupled mass spectrometry (LC–MS); details: 2 µM
[18] = The drug is tested on Eubacterium hallii strain: DSM3353 for biotransformation. The drug concentrations were measured before and after a 12-h incubation by liquid-chromatography-coupled mass spectrometry (LC–MS); details: anaerobutyricum hallii, 2 µM
[19] = bifidobacterium adolescentis, 12 h, 2 µM
Description: The drug is tested on Bifidobacterium adolescentis strain: ATCC 15703 for biotransformation. The drug concentrations were measured before and after a 12-h incubation by liquid-chromatography-coupled mass spectrometry (LC–MS)

[20] = The drug is tested on Subdoligranulum variabile strain: DSM15176 for biotransformation. The drug concentrations were measured before and after a 12-h incubation by liquid-chromatography-coupled mass spectrometry (LC–MS); details: 2 µM

Row | Bacterial Biotransformation [1] | Bacterial Biotransformation [2] | Bacterial Biotransformation [3] | Bacterial Biotransformation [4] | Bacterial Biotransformation [5] | Bacterial Biotransformation [6] | Bacterial Biotransformation [7] | Bacterial Biotransformation [8] | Bacterial Biotransformation [9] | Bacterial Biotransformation [10] | Bacterial Biotransformation [11] | Bacterial Biotransformation [12] | Bacterial Biotransformation [13] | Bacterial Biotransformation [14] | Bacterial Biotransformation [15] | Bacterial Biotransformation [16] | Bacterial Biotransformation [17] | Bacterial Biotransformation [18] | Bacterial Biotransformation [19] | Bacterial Biotransformation [20] | Structure (SMILES)
1 | Compound metabolized | Compound metabolized | Compound metabolized | Compound NOT metabolized | Compound NOT metabolized | Compound metabolized | Compound NOT metabolized | Compound NOT metabolized | Compound metabolized | Compound metabolized | Compound metabolized | Compound metabolized | Compound NOT metabolized | Compound metabolized | Compound metabolized | Compound metabolized | Compound NOT metabolized | Compound NOT metabolized | Compound NOT metabolized | – | COc1ccc2c(c1)c(CC(=O)O)c(C)n2C(=O)c1ccc(Cl)cc1 [INDOMETHACIN]
2 | Compound NOT metabolized | Compound NOT metabolized | Compound NOT metabolized | Compound metabolized | Compound NOT metabolized | Compound NOT metabolized | Compound NOT metabolized | Compound NOT metabolized | Compound NOT metabolized | Compound NOT metabolized | Compound NOT metabolized | Compound NOT metabolized | Compound NOT metabolized | Compound NOT metabolized | Compound NOT metabolized | Compound NOT metabolized | Compound NOT metabolized | Compound NOT metabolized | Compound NOT metabolized | – | CCC(C)n1ncn(-c2ccc(N3CCN(c4ccc(OCC5COC(Cn6cncn6)(c6ccc(Cl)cc6Cl)O5)cc4)CC3)cc2)c1=O (configuration not stated) [ITRACONAZOLE]
3 | Compound NOT metabolized | Compound NOT metabolized | – | – | Compound NOT metabolized | Compound NOT metabolized | Compound NOT metabolized | Compound NOT metabolized | Compound metabolized | – | Compound metabolized | – | Compound NOT metabolized | Compound metabolized | – | Compound NOT metabolized | – | Compound NOT metabolized | Compound NOT metabolized | Compound NOT metabolized | N#Cc1ccc2c(c1)N(CCCN1CCC(O)CC1)c1ccccc1S2 [PERICIAZINE]
